Here are results for twelve molecules from patent publication US20240415819A1, “MACROCYCLIC COMPOUNDS AS PROTEASOME SUBUNIT BETA TYPE-5 INHIBITORS” (Lead Discovery Center GmbH, priority 2021, published 2024).

Some results are limits rather than exact numbers.

One test has as its system HT-29 cells. As to the kind of experiment: CellTiter-Glo luminescent cell viability assay with HT-29 cells (72h incubation). The format is cell-based, human. Conditions: Homo sapiens, HT-29, HT29 cells, read-out: CTG HT29. The method in brief: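 Viability read as CellTiter-Glo luminescence after 72 h compound exposure, with 10 μM staurosporine and DMSO as control wells. Seeding 400 cells per well, compound added 24 h post-plating; IC50 from curve fitting.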

The next test has as its system hPMBC. Description: Chymotrypsin-like ProteasomeGlo assay in hPBMC. The test is classed as cell-based. Conditions: Homo sapiens; read-out: Pglo hPBMC. From the text:
Chymotrypsin-like ProteasomeGlo assay in the B-cells isolated from PBMC's following compound addition (IC50). • 1. PBMC's will be isolated from human blood followed by B-cell isolation from the PBMC's using the Miltenyi Isolation Kit. • 2. This experiment will use the Chymotrypsin-like ProteasomeGlo read-out to generate IC50's following compound treatment. • 3. Dilute all compounds 1:100 for the assay. • 4. […] Repeat the DMSO transfer with lane 12. • 5. Lane 12 should not be seeded with any cells. Only medium! • 6. For all steps, make sure the samples and reagents remain cool! • 7. While dealing with the buffy coats, be careful to not let any exposed skin to be in direct contact with the blood.
For the initial steps and to make processing the buffy coats easier, separately process the buffy coats. • a. Cut the tube attached to the buffy coats carefully using a clean, sterile and fresh scalpel. • b. Transfer the blood into 2 individual 50 ml falcons. • c. Add an equal volume of DPBS to the blood in the falcons. • d. Add ˜20 ml of lymphocyte separating medium to two 50 ml falcons. • e. Carefully pour 15-20 ml of the blood+DPBS mix from step c. onto the lymphocyte separating medium from step d. • f. Centrifuge the falcons with the lymphocyte separating medium+blood mix at 800×g for 15 minutes using a swing-out rotor. • g. Following centrifugation, carefully remove the falcons from the centrifuge. • h. The following layers will be observed: • i. Aspirate the plasma layer off carefully without disturbing the different layers. • j. Remove the cell pellet using a pipette into two fresh 50 ml falcons. • k. Fill the falcons with the cells up to 50 ml with DPBS. • l. Centrifuge the falcons at 250×g for 10 minutes using a swing-out rotor (Brake-off). • m. Aspirate the complete DPBS off the cells without disturbing the cell pellet at the bottom of the falcon. • n. Re-suspend the cell pellet in 10 ml of 1×RBC lysis buffer. • o. Incubate the falcons at room temperature in the dark for 10 minutes. • p. After RBC lysis, centrifuge the tubes at 250×g for 10 minutes using a swing-out rotor (brake-off). • (*Note: If the cell pellet is still red or light red, repeat steps n. to p.!) • q. Re-suspend the cell pellet in DPBS up to 50 ml in the falcon. • r. Centrifuge the falcons at 250×g for 10 minutes using a swing-out rotor (Brake-off). • s. Aspirate the DPBS off the cells without disturbing the cell pellet at the bottom of the falcon. • t. Repeat the wash step as described in steps q. to s. 2× times more (total number of washes is 3×). • u. Aspirate the DPBS completely off the cell pellet after the last wash without disturbing the cell pellet. • v. Re-suspend the cell pellet in 20 ml of PBMC cell medium. • w.
• a. Remove the plates with cells from the incubator. • b. Take all the plates including the compound plate, intermediate plate and Staurosporine plate to the ECHO. • c. Click on “Open” in the ECHO software and select the protocol “QLI5_25ul_30 uM-Grenier”. • d. Follow the on-screen prompts and instructions once you click “Start” to insert the compound plate, intermediate plate and destination plates. • e. Change the final number of destination plates on the program. • f. Follow the on-screen prompts and instructions once you click “Start” to load the Staurosporine and destination plates. • g. Once all the compounds, DMSO and Staurosporine have been transferred, place the destination plates in a wet tissue box. • h. Place the destination plates back into the incubator and incubate at 37° C., 5% CO2 for 105 minutes. • i. Re-seal all the compound+Stauro diamond and intermediate plates and store in the dark. Chymotrypsin like ProteasomeGlo Assay • 1. Thaw the components of the ProteasomeGlo assay at room temperature including the ProteasomeGlo Buffer, the lyophilized Luciferin Detection Reagent and the Suc-LLVY-Glo Substrate. • 2. […]

For test [1], the system named is A549 (human lung carcinoma cell line). Description: Glo assay of A549 cells (Table 3; ProteasomeGlo plating scheme). The test is classed as cell-based. Conditions: Homo sapiens; A549 cells; read-out: PGLo A549. The procedure, abridged:
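Luminescent read-out of cellular chymotrypsin-like proteasome activity: cells exposed to compound 105 min at 37° C., 5% CO2, then given Suc-LLVY-Glo reagent, shaken 2-5 min and kept dark 10-15 min before reading. Values are IC50 [nM].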

The target of test [2] is T1, β5 subunit of the human constitutive proteasome (CPS) (Homo sapiens, UniProt P28074).
T1 construct: purchased Boston Biochem E-360
Description: β5 inhibition assay, human constitutive proteasome (Suc-LLVY-AMC). The test is classed as biochemical. Conditions: IC50 class, Suc-LLVY-AMC substrate. As to the method:
The enzymatic activity of the β5 subunit of the human constitutive proteasome (CPS) is analyzed. In another assay, which differs from the assay of the human constitutive proteasome only in using the human immunoproteasome (IPS) the enzymatic activity of the β5 subunit of the human immunoproteasome (IPS) is analyzed. […] Inhibition is indicated as IC50 [nM] (“-”=not measured).

The target of test [3] is T2, β5 subunit of the human immunoproteasome (IPS) (Homo sapiens, UniProt P28062).
T2 construct: purchased Boston Biochem E-370
Description: β5 inhibition assay, human immunoproteasome (Suc-LLVY-AMC). The format is biochemical. Conditions: IC50 class, Suc-LLVY-AMC substrate. The method in brief:
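β5 activity is read as liberated AMC fluorescence (355/460 nm) after 4 h dark reaction at RT with 22.6 μM Suc-LLVY-AMC, stopped by 1 μM bortezomib. Beforehand, 1 nM human IPS and compound sat 10 min at RT in HEPES pH 7.5 buffer containing NaCl, 0.02% SDS and DTT.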

Test [4] deals with Hs 746T (human gastric carcinoma cell line). Description: 48 hr CTG viability assay, Hs 746T. The format is cell-based. Conditions: Hs746T, 48 hr CTG, read-out: Hs 746T IC50. The procedure, abridged:
(§1)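 Growth inhibition by compound over 48 h; IC50 (nM) derived from duplicate CellTiter-Glo luminescence readings across 0.0015–10 uM.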

Test [5] relates to MM1 S (B lymphoblast cell line). Description: 48 hr CTG viability assay, MM1S. The format is cell-based. Conditions: Homo sapiens, 48 hr CTG, read-out: MM1S IC50. The procedure, abridged: as §1
For test [6], the system named is RPMI 8226 (B lymphocyte cell line, multiple myeloma). As to the kind of experiment: 48 hr CTG viability assay, RPMI 8226. Conditions: Homo sapiens, RPMI-8226; 48 hr CTG; read-out: RPMI-8226 IC50. The format is cell-based. The procedure, abridged: as §1

With `Cc1cc2cc(c1C)CNC(=O)[C@H](CCc1ccccc1)NC(=O)[C@@H](NC(=O)OCc1ccccc1)CCCC(=O)NCCCCO2` [Compound 354, benzyl ((12S,15S)-14,15-dimethyl-8,13,16-trioxo-15-phenethyl-2-oxa-7,14,17-triaza-1(1,3)-benzenacyclooctadecaphane-12-yl)carbamate], the IC50 in the test with HT-29 cells was 100 to 500 nM; in the test with hPMBC, under 100 nM.
For the molecule `CC(=O)N[C@H]1CC(=O)N2CC(COc3ccc(C)c(c3)CNC(=O)[C@H](CCc3ccccc3)NC1=O)C2` [Compound 259, N-((8S,11S)-4^4-methyl-7,10,13-trioxo-8-phenethyl-3-oxa-6,9-diaza-1(3,1)-azetidina-4(1,3)-benzenacyclotridecaphane-11-yl)acetamide], the IC50 in the test on HT-29 cells was 100 to 500 nM; in the test with hPMBC it was over 5000 nM.
With `Cc1ccc2cc1CNC(=O)[C@H](CCc1ccccc1)NC(=O)[C@@H](NC(=O)OCc1ccccc1)CCCC(=O)N1CCC(CO2)C1` (stereo partly drawn) [Compound 351, benzyl ((8S, 11S)-4^4-methyl-7,10,15-trioxo-8-phenethyl-3-oxa-6,9-diaza-1(3,1)-pyrrolidina-4(1,3)-benzenacyclopentadecaphane-11-yl)carbamate], the IC50 is 100 to 500 nM in the test on HT-29 cells, 100 to 500 nM in test [1] and under 100 nM in the test on hPMBC.
On to `CC(=O)N[C@H]1CC(=O)NCCCCOc2ccc(C)c(c2)CNC(=O)[C@H](CCc2ccccc2)NC1=O` [Compound 168, N-((10S,13S)-1^4-methyl-8,11,14-trioxo-13-phenethyl-2-oxa-7,12,15-triaza-1(1,3)-benzenacyclohexadecaphane-10-yl)acetamide], for which the IC50 in test [2] is over 5000 nM; in test [3] it was 1000 to 5000 nM; with HT-29 cells it was 100 to 500 nM; in the test on hPMBC it was 1000 to 5000 nM.
As for `CC(=O)N[C@H]1CC(=O)N(C)CCCOc2ccc(C)c(c2)CNC(=O)[C@H](CCc2ccccc2)NC1=O` [Compound 256, N-((9S,12S)-1^4,6-dimethyl-7,10,13-trioxo-12-phenethyl-2-oxa-6,11,14-triaza-1(1,3)-benzenacyclopentadecaphane-9-yl)acetamide], the results for the IC50 in the test with HT-29 cells and in the test with hPMBC were 100 to 500 nM and over 5000 nM, respectively.
The like results for `CC(=O)N[C@H]1CC(=O)NCCCOc2ccc(C)c(c2)CNC(=O)[C@H](CCc2ccccc2)NC1=O` [Compound 253, N-((9S,12S)-1^4-methyl-7,10,13-trioxo-12-phenethyl-2-oxa-6,11,14-triaza-1(1,3)-benzenacyclopentadecaphane-9-yl)acetamide] were, in that order, 100 to 500 nM and over 5000 nM.
On the same counts, the results for `CC(=O)N[C@H]1CC(=O)N2CCC2(C)COc2ccc(C)c(c2)CNC(=O)[C@H](CCc2ccccc2)NC1=O` (stereo partly drawn) [Compound 260, N-((8S,11S)-1^2,4^4-dimethyl-7,10,13-trioxo-8-phenethyl-3-oxa-6,9-diaza-1(2,1)-azetidina-4(1,3)-benzenacyclotridecaphane-11-yl)acetamide] are 100 to 500 nM and over 5000 nM.
For the molecule `CC(=O)N[C@H]1CC(=O)N2CCCC(COc3ccc(C)c(c3)CNC(=O)[C@H](CCc3ccccc3)NC1=O)C2` (stereo partly drawn) [Compound 257, N-((8S,11S)-4^4-methyl-7,10,13-trioxo-8-phenethyl-3-oxa-6,9-diaza-1(3,1)-piperidina-4(1,3)-benzenacyclotridecaphane-11-yl)acetamide], the IC50 in the test on HT-29 cells fell in the range of 100 to 500 nM; in the test with hPMBC, 1000 to 5000 nM.
In the case of `Cc1ccc2cc1CNC(=O)[C@H](CCc1ccccc1)NC(=O)[C@@H](NC1CC3C=CC1C3)CC(=O)N1CCCC(CCO2)C1` (stereo partly drawn) [Compound 711, (9S,12S)-12-(bicyclo[2.2.1]hept-5-en-2-ylamino)-5^4-methyl-9-phenethyl-4-oxa-7,10-diaza-1(3,1)-piperidina-5(1,3)-benzenacyclotetradecaphane-8,11,14-trione], the IC50 in test [2] was under 100 nM; in test [3], under 100 nM; in test [1] it was 100 to 500 nM; in test [4] it was 100 to 500 nM; in test [5] it was under 100 nM; in test [6], under 100 nM.
Take `COCCOCCC(=O)N[C@H]1CC(=O)N2CCCC(CCOc3ccc(C)c(c3)CNC(=O)[C@H](CCc3ccccc3)NC1=O)C2` (stereo partly drawn) [Compound 596, 3-(2-methoxyethoxy)-N-((9S,12S)-5^4-methyl-8,11,14-trioxo-9-phenethyl-4-oxa-7,10-diaza-1(3,1)-piperidina-5(1,3)-benzenacyclotetradecaphane-12-yl)propanamide]: the IC50 in test [2], in test [3], in test [1], in test [4], in test [5] and in test [6] was under 100 nM each time.
For the molecule `COc1ccc(CCCOCCC(=O)N[C@H]2CC(=O)N3CCCC(CCOc4ccc(C)c(c4)CNC(=O)[C@H](CCc4ccccc4)NC2=O)C3)cc1` (stereo partly drawn) [Compound 606, 3-(3-(4-methoxyphenyl)propoxy)-N-((9S,12S)-5^4-methyl-8,11,14-trioxo-9-phenethyl-4-oxa-7,10-diaza-1(3,1)-piperidina-5(1,3)-benzenacyclotetradecaphane-12-yl)propanamide], the IC50 in test [2], in test [3], in test [1], in test [4], in test [5] and in test [6] was under 100 nM each time.
Consider `Cc1ccc2cc1CNC(=O)[C@H](CCc1ccccc1)NC(=O)[C@@H](NC(=O)CCNC(=O)c1ccc(C3CCCCC3)cc1)CC(=O)N1CCCC(CCO2)C1` (stereo partly drawn) [Compound 656, 4-cyclohexyl-N-(3-(((9S,12S)-5^4-methyl-8,11,14-trioxo-9-phenethyl-4-oxa-7,10-diaza-1(3,1)-piperidina-5(1,3)-benzenacyclotetradecaphane-12-yl)amino)-3-oxopropyl)benzamide], for which the IC50 in test [2], in test [3], in test [1], in test [4], in test [5] and in test [6] was under 100 nM each time.
